Assay [1] has as its system Pseudomonas aeruginosa PA14. Nature of the assay: Biofilm formation on polystyrene, crystal violet staining. The format is cell-based. How it is done: Crystal violet staining Crystal violet staining was done as described previously (O'Toole et al., Mol. Microbiol. 30:295 (1998)) except that the cells were grown in 6-well plates. Wells were stained with 500 μl of 1.0% Crystal-violet dye, rinsed twice with 2 ml double-distilled water and thoroughly dried.
P. aeruginosa strain […] was grown in 12-well polystyrene plates for 48 hours at 30° C. in M63 medium containing glycerol (0.2%) and Casamino acids (20 μg/ml). Additionally added to the wells were no amino acids (untreated), D-tyrosine or the D-amino acid equimolar mixture. Cells bound to the polystyrene were visualized by washing away unbound cells and then staining with crystal violet. Wells were stained with 500 μl of 1.0% Crystal-violet dye, rinsed twice with 2 ml double-distilled water and thoroughly dried.
For experiments reported in Table 1, the organism/strain was S.a. Harvard SCO1, the culture medium was TSB and the cell inoculation was at 2×10^9 cfu. For experiments reported in Table 2, the organism/strain was […], the culture medium was M63 and the cell inoculation was at 1.5×10^9 cfu. Biofilm was visualized using the crystal violet method.

Assay [2] has as its system Bacillus subtilis NCIB3610. Nature of the assay: Colony biofilm formation on solid MSgg medium. It counts as cell-based. As to conditions: 3 μM, 4 days. The protocol:
Colony and pellicle formation. For colony formation on solid medium, cells were first grown to exponential growth phase in LB broth and 3 μl of culture were spotted onto solid MSgg medium containing 1.5% Bacto agar. The plates were incubated at 23° C. For pellicle formation in liquid medium, cells were grown to exponential phase and 6 μl of culture were mixed with 6 ml of medium in a 12-well plate (VWR). Plates were incubated at 23° C. Images of colonies and pellicles were taken using a SPOT camera (Diagnostic Instruments, USA).

Assay [3] concerns matrix operons eps and yqxM. Put plainly: Expression of PyqxM-lacZ and PepsA-lacZ (β-galactosidase activity). The format is cell-based, Bacillus subtilis. The note with it: 3 μM, strains FC122 and FC5, MSgg, shaking. The protocol: Assays of β-galactosidase activity. Cells were cultured in MSgg medium at 37° C. in a water bath with shaking 1 ml of culture was collected at each time point. β-galactosidase activity was determined as described previously (Chai et al., Mol. Microbiol. 67:254 (2008)).

A further assay relates to TasA-mCherry. The format is cell-based, Bacillus subtilis. The note with it: 6 μM. The protocol:
Fluorescence microscopy. For fluorescence microscopy analysis, 1 ml of culture was harvested. The cells were washed with PBS buffer and suspended in 50 μl of PBS buffer. Cover slides were pretreated with poly L-lysine (Sigma). Samples were examined using an Olympus workstation BX61 microscope. Images were taken using the automated software program SimplePCI and analyzed with program MetaMorph (Universal Imaging Corporation).
The cells were grown to stationary phase with shaking in biofilm-inducing medium in the presence or absence of D-tyrosine (6 μM). […] In contrast, when the cells were washed by centrifugation, resuspended and then examined by fluorescence microscopy, untreated cells (which were often in clumps) were seen to be intensely decorated with TasA-mCherry. […] The localization of unmodified TasA protein was also analyzed by transmission electron microscopy using gold-labeled anti-TasA antibodies. […] 24-hour-old cultures were incubated without (images 1 and 2) or with (images 3-6) D-tyrosine (0.1 mM) for an additional 12 hours. TasA fibers were stained by immunogold labeling using anti-TasA antibodies, and visualized by transmission electron microscopy as described in the Examples. […] Filled arrows indicate fiber bundles; open arrows indicate individual fibers. The scale bar is 500 nm. The scale bar in the enlargements of images 2, 4 and 6 is 100 nm. […]

Another assay concerns Bacillus subtilis. Put plainly: Disruption of existing 3 day-old pellicles. It counts as cell-based. As to conditions: 3 μM added to 3 day-old cultures, further 8 hours.
The next assay concerns TasA fibers. Nature of the assay: Cell association of TasA fibers by immunogold transmission electron microscopy. The format is cell-based, Bacillus subtilis. As to conditions: 0.1 mM, 24-hour-old Δeps cultures treated for 12 hours. How it is done: Transmission electron microscopy and immunolabeling. Samples were diluted with distilled water and adsorbed onto a carbon or formvar/carbon coated grid. The grid surface was made hydrophilic prior to use with glow discharge in a vacuum evaporator. Once the specimen was adsorbed onto the film surface, the excess sample was blotted off on a filter paper (Whatman #1) and the grid was floated on 5 μl of stain solution (1-2% aqueous uranyl acetate) for a few minutes and then blotted off. The samples were dried and examined in a Tecnai™ G^2 Spirit BioTWIN microscope at an accelerating voltage of 80 KV. Images were taken with an AMT 2k CCD camera. […]
The cells were grown to stationary phase with shaking in biofilm-inducing medium in the presence or absence of D-tyrosine (6 μM). […] In contrast, when the cells were washed by centrifugation, resuspended and then examined by fluorescence microscopy, untreated cells (which were often in clumps) were seen to be intensely decorated with TasA-mCherry. […] The localization of unmodified TasA protein was also analyzed by transmission electron microscopy using gold-labeled anti-TasA antibodies. […]

Take `N[C@H](Cc1ccc(O)cc1)C(=O)O` [D-tyrosine]: in assay [1] (10 μM, strain P014, polystyrene, 48 hours at 30° C., M63 medium), the “Prevention of biofilm formation (FIG. 10)” value was “effective in preventing biofilm formation”. The inhibition at 0.1 µM in assay [1] (Pseudomonas aeruginosa, PA14, Table 2, 100 nM, 48 h/30° C., polystyrene, M63, read-out: % Inhibition relative to control (0%, <50%, 50-90%, >90%)) amounted to 0%. For the same compound, the inhibition at 10 µM in assay [1] (Pseudomonas aeruginosa, PA14, Table 2, 10 μM, 48 h/30° C., polystyrene, M63, read-out: % Inhibition relative to control (0%, <50%, 50-90%, >90%)) was greater than 90%. Moreover, the inhibition at 100 µM in assay [1] (Pseudomonas aeruginosa, PA14, Table 2, 100 μM, 48 h/30° C., polystyrene, M63, read-out: % Inhibition relative to control (0%, <50%, 50-90%, >90%)) was greater than 90%. The inhibition at 500 µM in assay [1] (Pseudomonas aeruginosa, PA14, Table 2, 500 μM, 48 h/30° C., polystyrene, M63, read-out: % Inhibition relative to control (0%, <50%, 50-90%, >90%)) was greater than 90%. Besides, the “Biofilm formation on solid MSgg medium (FIG. 6)” value in assay [2] is listed as “inhibited biofilm formation”. Besides, in assay [3], the “yqxM and eps expression (FIG. 9A, 9B)” value is “substantially the same as the untreated sample”. For the same compound, the “total accumulation of TasA-mCherry (FIG. 3B)” value with TasA-mCherry (grown to stationary phase with shaking) is on record as “little or no effect”. Further, the “Cell decoration with TasA-mCherry, fluorescence microscopy of washed cells” value in the assay on TasA-mCherry (grown to stationary phase, washed and resuspended) is on record as “only low levels of fluorescence”. Besides, the “Breakdown of existing pellicles (FIG. 2C)” value in the assay with Bacillus subtilis is given as “conspicuous breakdown of pellicles”. For the same compound, the “Cell association of TasA fibers (FIG. 3D)” value in the assay on TasA fibers is on record as “largely undecorated with TasA fibers”.

The term inhibition denotes the share of the control response that was lost under treatment.

The record behind these values is patent US20130059096A1, “METHODS AND COATINGS FOR TREATING BIOFILMS” (President and Fellows of Harvard College, priority 2010, published 2013).
